In publication PMC5187391, “Structural mechanism for the arginine sensing and regulation of CASTOR1 in the mTORC1 signaling pathway” (Cell Discovery, 2016):
Numbering of substitutions follows the chain as printed. Values belong to the molecule of their own block, whether it stands above or below them.

How the values were obtained:
[1] = molecular target: T1, CASTOR1 (Homo sapiens, UniProt Q8WTX7, S111A); assay: ITC; format: binding
T1 construct: full-length human CASTOR1, N-terminal 6×His-tag
T1 sequence (Q8WTX7 1-329 S111A): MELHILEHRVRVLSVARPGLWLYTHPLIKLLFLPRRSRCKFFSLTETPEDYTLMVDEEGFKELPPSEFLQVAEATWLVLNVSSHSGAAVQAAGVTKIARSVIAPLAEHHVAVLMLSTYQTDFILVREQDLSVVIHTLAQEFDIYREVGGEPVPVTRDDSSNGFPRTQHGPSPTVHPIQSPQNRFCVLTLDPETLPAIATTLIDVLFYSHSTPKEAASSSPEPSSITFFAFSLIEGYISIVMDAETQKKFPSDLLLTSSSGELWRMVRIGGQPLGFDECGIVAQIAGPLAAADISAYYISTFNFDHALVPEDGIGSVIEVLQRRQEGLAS

[2] = molecular target: T2, CASTOR1 (Homo sapiens, UniProt Q8WTX7); assay: ITC; format: binding
T2 construct: full-length human CASTOR1, N-terminal 6×His-tag (homodimer)
T2 sequence (Q8WTX7 1-329): T1 sequence (Q8WTX7 1-329 S111A) with A111S

[3] = molecular target: T3, Full-length human Mios with an N-terminal GST tag (human, UniProt Q9NXC5 1-875); assay: pull-down; Ni2+-NTA column pull-down: His-CASTOR1 pre-immobilised on the Ni2+-NTA column, GST-Mios (or another purified GATOR2 subunit) added at 4 °C; wash 25 mM Tris, pH 8.0, 300 mM NaCl, 20 mM imidazole; elution with 500 mM imidazole; SDS-PAGE and Coomassie Blue staining; conditions: both partners purified
T3 construct: Mios, human, full length, in pGEX4T-1; the methods describe only GST-Mios for the Ni2+-NTA pull-down; also called GST-Mios; purified Mios protein; not shown: GST, N-terminal, kept
T3 sequence (looked up): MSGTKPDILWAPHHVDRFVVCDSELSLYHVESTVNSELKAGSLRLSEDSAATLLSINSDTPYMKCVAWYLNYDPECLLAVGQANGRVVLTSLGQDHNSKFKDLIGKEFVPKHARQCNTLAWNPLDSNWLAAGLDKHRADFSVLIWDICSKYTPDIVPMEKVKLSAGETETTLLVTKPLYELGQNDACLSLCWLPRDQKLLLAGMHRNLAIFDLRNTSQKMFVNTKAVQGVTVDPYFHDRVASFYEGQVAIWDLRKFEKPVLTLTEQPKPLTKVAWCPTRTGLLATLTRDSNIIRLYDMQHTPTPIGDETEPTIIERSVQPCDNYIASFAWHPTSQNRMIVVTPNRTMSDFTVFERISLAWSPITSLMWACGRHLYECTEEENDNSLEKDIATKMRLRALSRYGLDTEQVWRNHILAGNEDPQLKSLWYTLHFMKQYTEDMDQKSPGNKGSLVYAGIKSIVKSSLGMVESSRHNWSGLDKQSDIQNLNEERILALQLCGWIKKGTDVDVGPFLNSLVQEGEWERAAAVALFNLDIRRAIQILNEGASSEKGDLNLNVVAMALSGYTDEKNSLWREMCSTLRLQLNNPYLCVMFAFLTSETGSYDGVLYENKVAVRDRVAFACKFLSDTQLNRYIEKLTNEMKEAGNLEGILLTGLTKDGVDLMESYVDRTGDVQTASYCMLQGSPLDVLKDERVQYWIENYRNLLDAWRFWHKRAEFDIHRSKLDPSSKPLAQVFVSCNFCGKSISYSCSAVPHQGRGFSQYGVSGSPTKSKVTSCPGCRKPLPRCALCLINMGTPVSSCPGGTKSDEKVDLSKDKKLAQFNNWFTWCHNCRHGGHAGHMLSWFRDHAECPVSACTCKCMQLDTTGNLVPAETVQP

[4] = molecular target: the molecule itself; assay: SEC-MALS; 25 °C; about 400 μg protein injected per run; 15 mM Tris-HCl, pH 8.0, 150 mM NaCl, 2 mM DTT; WTC-015S5 column

Molecule: N=C(N)NCCC[C@H](N)C(=O)O [arginine]
Kd [1]: 9.68 µM
Kd [2]: 2.23 µM

binding result [3]: binds
B1: Full-length human CASTOR1, wild type, N-terminal 6xHis-tag (natural protein, UniProt Q8WTX7 1-329, looked up)
chain: T1 sequence (Q8WTX7 1-329 S111A) with A111S
notes: CASTOR1, human, full length (residues 1-329 by the domain limits printed in the results); cDNA chemically synthesized, in pET28a; Dimer in the crystal and by SEC-MALS; also called WT CASTOR1; His-CASTOR1; source: E. coli BL21(DE3), purified (Ni2+-NTA, Superdex 200 gel filtration); not shown: His6, N-terminal, kept
stoichiometry N [4]: 2
